# In the supplement of paper PMC10307832:
# Columns and labels:
# Experiment in all cases: relative viability (nuclei count vs DMSO), 5 days (fraction); higher = more cells survive
# [1] = system: 201T
# In short: (§1)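 Medians of duplicate plates are given as relative viability. That measure is the nuclei count in treated wells divided by the count in vehicle wells. Counts were taken on 4× images of lung cancer cell lines in 1536-well plates, 5 days after pin-tool dosing the day after seeding with one drug alone or a fixed anchor-drug dose plus five library-drug doses (not always all listed) in √10 steps.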
# [2] = system: BEN
# In short: as §1
# [3] = system: COR-L 105
# In short: as §1
# [4] = system: EMC-BAC-2
# In short: as §1
# [5] = system: H3255
# In short: as §1
# [6] = system: HARA
# In short: as §1
# [7] = system: HCC-78
# In short: as §1
# [8] = system: HOP-62
# In short: as §1
# [9] = system: LC-2-ad
# In short: as §1
# [10] = system: LOU-NH91
# In short: as §1
# [11] = system: LU99A
# In short: as §1
# [12] = system: LXF-289
# In short: as §1
# [13] = system: NCI-H1395
# In short: as §1
# [14] = system: NCI-H1563
# In short: as §1
# [15] = system: NCI-H1993
# In short: as §1
# [16] = system: NCI-H2087
# In short: as §1
# [17] = system: NCI-H2126
# In short: as §1
# [18] = system: NCI-H2170
# In short: as §1
# [19] = system: NCI-H650
# In short: as §1
# [20] = system: RERF-LC-KJ
# In short: as §1
# [21] = system: SK-MES-1
# In short: as §1
# [22] = system: SW 900
# In short: as §1
# [23] = system: UMC-11
# In short: as §1
smiles,measurement,setting,value
Cc1cn(-c2cc(NC(=O)c3ccc(C)c(Nc4nccc(-c5cccnc5)n4)c3)cc(C(F)(F)F)c2)cn1 [Nilotinib] + Cc1nc(Nc2ncc(C(=O)Nc3c(C)cccc3Cl)s2)cc(N2CCN(CCO)CC2)n1 [Dasatinib] (partner 0.075 µM),relative viability,[1]; first compound 0.01 µM,0.404
same,relative viability,[1]; first compound 0.03162 µM,0.451
same,relative viability,[1]; first compound 0.1 µM,0.295
same,relative viability,[2]; first compound 0.001 µM,0.336
same,relative viability,[2]; first compound 0.003162 µM,0.338
same,relative viability,[2]; first compound 0.01 µM,0.278
same,relative viability,[2]; first compound 0.03162 µM,0.322
same,relative viability,[2]; first compound 0.1 µM,0.221
same,relative viability,[3]; first compound 0.001 µM,0.374
same,relative viability,[3]; first compound 0.003162 µM,0.357
same,relative viability,[3]; first compound 0.01 µM,0.297
same,relative viability,[3]; first compound 0.03162 µM,0.345
same,relative viability,[3]; first compound 0.1 µM,0.222
same,relative viability,[4]; first compound 0.001 µM,0.308
same,relative viability,[4]; first compound 0.003162 µM,0.308
same,relative viability,[4]; first compound 0.01 µM,0.325
same,relative viability,[4]; first compound 0.03162 µM,0.27
same,relative viability,[4]; first compound 0.1 µM,0.296
same,relative viability,[5]; first compound 0.001 µM,0.381
same,relative viability,[5]; first compound 0.003162 µM,0.325
same,relative viability,[5]; first compound 0.03162 µM,0.316
same,relative viability,[5]; first compound 0.1 µM,0.304
same,relative viability,[6]; first compound 0.001 µM,0.325
same,relative viability,[6]; first compound 0.003162 µM,0.345
same,relative viability,[6]; first compound 0.01 µM,0.289
same,relative viability,[6]; first compound 0.03162 µM,0.178
same,relative viability,[6]; first compound 0.1 µM,0.112
same,relative viability,[7]; first compound 0.001 µM,0.442
same,relative viability,[7]; first compound 0.003162 µM,0.357
same,relative viability,[7]; first compound 0.01 µM,0.404
same,relative viability,[7]; first compound 0.03162 µM,0.252
same,relative viability,[7]; first compound 0.1 µM,0.268
same,relative viability,[8]; first compound 0.001 µM,0.603
same,relative viability,[8]; first compound 0.003162 µM,0.67
same,relative viability,[8]; first compound 0.01 µM,0.66
same,relative viability,[8]; first compound 0.03162 µM,0.491
same,relative viability,[8]; first compound 0.1 µM,0.476
same,relative viability,[9]; first compound 0.001 µM,0.512
same,relative viability,[9]; first compound 0.003162 µM,0.701
same,relative viability,[9]; first compound 0.01 µM,0.574
same,relative viability,[9]; first compound 0.03162 µM,0.43
same,relative viability,[9]; first compound 0.1 µM,0.387
same,relative viability,[10]; first compound 0.001 µM,0.524
same,relative viability,[10]; first compound 0.003162 µM,0.619
same,relative viability,[10]; first compound 0.01 µM,0.569
same,relative viability,[10]; first compound 0.03162 µM,0.489
same,relative viability,[10]; first compound 0.1 µM,0.583
same,relative viability,[11]; first compound 0.001 µM,0.482
same,relative viability,[11]; first compound 0.003162 µM,0.702
same,relative viability,[11]; first compound 0.01 µM,0.557
same,relative viability,[11]; first compound 0.03162 µM,0.359
same,relative viability,[11]; first compound 0.1 µM,0.282
same,relative viability,[12]; first compound 0.001 µM,0.214
same,relative viability,[12]; first compound 0.003162 µM,0.239
same,relative viability,[12]; first compound 0.01 µM,0.188
same,relative viability,[12]; first compound 0.03162 µM,0.207
same,relative viability,[12]; first compound 0.1 µM,0.136
same,relative viability,[13]; first compound 0.001 µM,0.445
same,relative viability,[13]; first compound 0.003162 µM,0.357
same,relative viability,[13]; first compound 0.01 µM,0.428
same,relative viability,[13]; first compound 0.03162 µM,0.357
same,relative viability,[13]; first compound 0.1 µM,0.333
same,relative viability,[14]; first compound 0.001 µM,0.447
same,relative viability,[14]; first compound 0.003162 µM,0.447
same,relative viability,[14]; first compound 0.01 µM,0.442
same,relative viability,[14]; first compound 0.03162 µM,0.492
same,relative viability,[14]; first compound 0.1 µM,0.329
same,relative viability,[15]; first compound 0.001 µM,0.625
same,relative viability,[15]; first compound 0.003162 µM,0.546
same,relative viability,[15]; first compound 0.01 µM,0.495
same,relative viability,[15]; first compound 0.03162 µM,0.516
same,relative viability,[15]; first compound 0.1 µM,0.627
same,relative viability,[16]; first compound 0.001 µM,0.821
same,relative viability,[16]; first compound 0.003162 µM,1.33
same,relative viability,[16]; first compound 0.01 µM,1.13
same,relative viability,[16]; first compound 0.03162 µM,0.357
same,relative viability,[16]; first compound 0.1 µM,0.203
same,relative viability,[17]; first compound 0.001 µM,0.534
same,relative viability,[17]; first compound 0.003162 µM,0.522
same,relative viability,[17]; first compound 0.01 µM,0.513
same,relative viability,[17]; first compound 0.03162 µM,0.5
same,relative viability,[17]; first compound 0.1 µM,0.459
same,relative viability,[18]; first compound 0.001 µM,0.591
same,relative viability,[18]; first compound 0.003162 µM,0.576
same,relative viability,[18]; first compound 0.01 µM,0.736
same,relative viability,[18]; first compound 0.03162 µM,0.465
same,relative viability,[18]; first compound 0.1 µM,0.406
same,relative viability,[19]; first compound 0.001 µM,0.462
same,relative viability,[19]; first compound 0.003162 µM,0.479
same,relative viability,[19]; first compound 0.01 µM,0.49
same,relative viability,[19]; first compound 0.03162 µM,0.408
same,relative viability,[19]; first compound 0.1 µM,0.379
same,relative viability,[20]; first compound 0.001 µM,0.716
same,relative viability,[20]; first compound 0.003162 µM,0.947
same,relative viability,[20]; first compound 0.01 µM,0.833
same,relative viability,[20]; first compound 0.03162 µM,0.71
same,relative viability,[20]; first compound 0.1 µM,0.549
same,relative viability,[21]; first compound 0.001 µM,0.306
same,relative viability,[21]; first compound 0.003162 µM,0.334
same,relative viability,[21]; first compound 0.01 µM,0.308
same,relative viability,[21]; first compound 0.03162 µM,0.29
same,relative viability,[21]; first compound 0.1 µM,0.207
same,relative viability,[22]; first compound 0.001 µM,0.538
same,relative viability,[22]; first compound 0.003162 µM,0.617
same,relative viability,[22]; first compound 0.01 µM,0.564
same,relative viability,[22]; first compound 0.03162 µM,0.442
same,relative viability,[22]; first compound 0.1 µM,0.315
same,relative viability,[23]; first compound 0.001 µM,0.41
same,relative viability,[23]; first compound 0.003162 µM,0.655
same,relative viability,[23]; first compound 0.01 µM,0.649
same,relative viability,[23]; first compound 0.1 µM,0.247
